Read-outs that look alike come from different tables or passages of the source.
Key:
heart = tested on: heart; set-up: method as in Refs column of Supplementary Table 1; conditions: Refs of Supplementary Table 1; cited from earlier work
[1] = cited from earlier work; for FTPC: free therapeutic plasma concentration, Refs of Supplementary Table 1; for FPTC (free plasma therapeutic concentration): ref Supplementary Table 1
cardiac contractility = conditions: cited from earlier work; for Expected effect on contractility in isolated cardiomyocytes/heart muscles / EC50 / IC50: Refs of Supplementary Table 1, isolated cardiomyocytes/heart muscles; for EC50: read-out: Expected effect on contractility in isolated cardiomyocytes/heart muscles, EC50; for IC50: negative inotropy, read-out: Expected effect on contractility in isolated cardiomyocytes/heart muscles, IC50
hiPSC-CMs = test: Training set contractility in hiPSC-CMs on TTM, CellOPTIQ and EHT platforms; type: cell-based, human; conditions: for inotropy (CA) response: trend or significant response, Supplementary Figure 3
Method: The training set of 8 drugs was used to test and refine protocols. […] For each parameter, the percentage change in drug-treated samples relative to their respective vehicle control was calculated using the formula ([drug/drug baseline]/[vehicle/vehicle baseline])*100–100. […] These studies allowed unification of SOPs, although physical and technical constraints between the platforms meant that some unavoidable differences remained (Supplementary Table 2).
Supplementary Figure 3: Training sets to unify drug testing procedures. […] The percentage change in drug treated samples is relative to their respective vehicle control. Unpaired T-test. * p<0.05; ** p<0.01; *** p<0.001; **** p<0.0001.

hiPSC-CM EHTs = test: EHT contractility with beat rate slowed by 300 nM ivabradine and electrical pacing 0.5-2.0 Hz; type: cell-based, human; conditions: EHTs with 300 nM ivabradine, paced; only at 0.5 and 0.7 Hz, sometimes at 1 Hz, never at 1.5 or 2 Hz; high concentration bolus
Method: We extended these studies to the 3D EHT platform, this time slowing spontaneous beating to < 0.5 Hz with 300 nM ivabradine, a pharmacological blocker of the “funny” If current ([Bois et al., 1996]). […] Whereas force-frequency relationships was negative above 1.5 Hz, it was positive between 0.5 and 1.5 Hz, evidenced by a 147% increase in force generation concurrent with significant shortening of CT and RT (Supplementary Figure 6). We therefore re-evaluated 6 of the PIs in the presence of 300 nM ivabradine with electrical pacing at 0.5, 0.7, 1.0, 1.5, and 2.0 Hz. These also included epinephrine, levosimendan, and pimobendan, which had been incorrectly predicted by EHT:R-PAT and/or EHT:ERC platform-cell combinations. […] Thus, in both 2D and 3D configurations, lower beating frequencies led to increased predictivity for PIs.
Figure 5. Slowed beat rate increases the predictivity of positive inotropes (PIs) in 3D engineered heart tissues (EHTs). Contraction analysis was carried out using EHTs with 6 of the PIs from the drug test set: epinephrine (Epi), forskolin (For), levosimendan (Lev), pimobendan (Pim), dobutamine (Dob), and milrinone (Mil) which had been predicted with variable accuracy (Figure 4A, web tool). […] Scatter plots show percentage changes relative to baseline at respective frequency. Averaged peaks for force are shown for baseline (BL, black peaks) versus after treatment in EHTs paced at 0.5 Hz (blue peaks) or 2.0 Hz (red peaks). Dunnett’s stats versus baseline at respective frequency: *p < .05; **p < .01; ***p < .001; ****p < .0001.
Supplementary Figure 6. Positive force frequency relationship in EHTs paced between 0.5 and 1.5 Hz. Spontaneous beat rate of EHTs was reduced by 3 hour pre-treatment with 300 nM ivabradine, an If current inhibitor. […] CA increased from 0.5 to 1.5 Hz but plateaued and declined at higher frequencies. These changes were reflected in the CT and RT data. Dunnett's stats vs vehicle control: *, P<0.05; **, P<0.01; ***, P<0.001; ****, P<0.0001.

[2] = heart muscle, at 500 µM, ref (Kirby et al. 1992), (Baudet et al. 1993)

Compound	Expected cardiac effects in vivo (heart)	FTPC [1] [µM]	FPTC (free plasma therapeutic concentration) [1] [µM]	Expected effect on contractility in isolated cardiomyocytes/heart muscles (cardiac contractility)	further results
Clc1cccc(Cl)c1N=C1NCCN1 [Clonidine]	NI, NC	0.002 to 0.004	0.002 to 0.004	None	–
CC(C)NCC(O)COc1ccc(CC(N)=O)cc1 (stereo not drawn) [Atenolol]	NI, NC, ND	–	–	None (in absence of agonist) until 3000 µM (in contrast to e.g. propranolol)	–
CC(C)NCC(O)c1ccc(O)c(O)c1 (stereo not drawn) [isoprenaline]	PI, PC	0.0095	–	–	CT and RT response (hiPSC-CMs; 3D EHTs): decreased of both CT and RT; inotropy (CA) response (hiPSC-CMs): positive inotropy; EC50 (cardiac contractility): 10 nM
CC(=O)Nc1ccc(O)cc1 [Paracetamol]	None	50	50	None	–
COc1ccc(C(=O)N2CCCc3cc(C4=NNC(=O)SC4C)ccc32)cc1OC (stereo not drawn) [EMD 57033]	–	16	–	PI, NL	EC50 (cardiac contractility): ~5000 nM
COc1ccc(Cl)cc1C(=O)NCCc1ccc(S(=O)(=O)NC(=O)NC2CCCCC2)cc1 [Glibenclamide]	None or PI in ischemia	0.02 to 0.06	0.02 to 0.06	None; PI in ischemia or presence of KATP opener; NI in adrenalectomized dogs, NE in isolated dog heart trabeculae	–
Cc1ccc(N(CC2=NCCN2)c2cccc(O)c2)cc1 [Phentolamine]	–	–	–	–	free plasma concentration in patients ([1]; patients, ref Wallis et al., 2015): approximately 2.5 µM; inotropic effect at concentrations above 10 µM (cardiac contractility; above 10 µM, via modulation of fast sodium and L-type calcium channels, ref Rosen et al., 1971, Sada, 1978): negative inotropy; inotropic effect at free plasma concentrations (cardiac contractility; approximately 2.5 µM in patients, ref Wallis et al., 2015): neutral inotrope; IC50 (cardiac contractility): ~20000 nM
CCCc1nn(C)c2c(=O)[nH]c(-c3cc(S(=O)(=O)N4CCN(C)CC4)ccc3OCC)nc12 [Sildenafil]	None or PI+PC (indirect)	–	–	None	–
O=C(NCC1CCCCN1)c1cc(OCC(F)(F)F)ccc1OCC(F)(F)F (stereo not drawn) [Flecainide]	–	–	–	–	IC50 (cardiac contractility): 300 nM
CC(C)[C@@]1(O)[C@@H](OC(=O)c2ccc[nH]2)[C@@]2(O)[C@@]3(C)C[C@]4(O)O[C@@]5([C@H](O)[C@@H](C)CC[C@]35O)[C@@]2(O)[C@@]14C [ryanodine]	–	–	–	NI, NCl, species dependent biphasic	IC50 (cardiac contractility): ~10 nM
CC(C)(C)NCC(O)c1cc(O)cc(O)c1 (stereo not drawn) [Terbutaline]	–	1.3	1.3	–	EC50 (cardiac contractility): 3000 nM
COC(=O)C1=C(C)NC(C)=C([N+](=O)[O-])C1c1ccccc1C(F)(F)F (stereo not drawn) [Bay K 8644]	PI (indirect NC because of RR increase)	–	–	PI, NL	–
C/C=C(/C)C(=O)O[C@H]1C(C)=C2[C@H]([C@@H]1OC(=O)CCCCCCC)[C@@](C)(OC(C)=O)C[C@H](OC(=O)CCC)[C@@]1(O)[C@H]2OC(=O)[C@@]1(C)O [thapsigargin]	–	–	–	–	NI (cardiac contractility; [2]): ~50%; NL (cardiac contractility; [2]): ~20%; NI (cardiac contractility; isolated myocytes, at 0.1 µM, ref (Kirby et al. 1992), (Baudet et al. 1993)): ~90%
CC(=O)Oc1ccccc1C(=O)O [Acetylsalicylic acid]	None	0.3 to 2	0.3 to 2	None	–
CNC(=O)c1cc(Oc2ccc(NC(=O)Nc3ccc(Cl)c(C(F)(F)F)c3)cc2)ccn1 [Sorafenib]	None or NI at high doses, delayed cardiotox	0.03	0.03	None (feline and canine CM, but cell death), NI (rat heart)	–
COc1ccc(-c2nc3ccc(C4=NNC(=O)CC4C)cc3[nH]2)cc1 (stereo not drawn) [Pimobendan]	PI, small PC	0.005 to 0.01	0.005 to 0.01	–	CA response (hiPSC-CM EHTs): increased contraction amplitude; EC50 (cardiac contractility): 34000 nM
CNC[C@H](O)c1ccc(O)c(O)c1 [Epinephrine]	PI, PC	0.0002 to 0.050	0.0002 to 0.05	–	CA response (hiPSC-CM EHTs): increased contraction amplitude; EC50 (cardiac contractility): 100 nM
C[C@H](CS)C(=O)N1CCC[C@H]1C(=O)O [Captopril]	None	1 to 2	1 to 2	None	–
CN(C)CCCC1(c2ccc(F)cc2)OCc2cc(C#N)ccc21 (stereo not drawn) [Citalopram]	None (at therapeutic doses), higher risk of TdP	0.05	0.05	NI at 30 µM	NI (cardiac contractility; at 30 µM, in hEHT, ref (Witchel et al. 2002), (Mannhardt et al. 2017), (Rao 2007)): -57%; NI (cardiac contractility; at 30 µM, in human atria, ref (Witchel et al. 2002), (Mannhardt et al. 2017), (Rao 2007)): -38%
CN(C)C/C=C(/c1ccc(Br)cc1)c1cccnc1 [Zimelidine]	None (at ther. doses), QT and QRS widening at high doses	–	–	–	–
COc1ccc(CCN(C)CCCC(C#N)(c2ccc(OC)c(OC)c2)C(C)C)cc1OC (stereo not drawn) [Verapamil]	NI (direct) partially masked by adrenergic activation (indirect), NC or none, ND (direct)	–	–	–	IC50 (cardiac contractility): 100 nM
CCC(C)n1ncn(-c2ccc(N3CCN(c4ccc(OCC5COC(Cn6cncn6)(c6ccc(Cl)cc6Cl)O5)cc4)CC3)cc2)c1=O (stereo not drawn) [Itraconazole]	–	0.00086	0.00086	–	NI (cardiac contractility; at 0.3 µM, rabbit heart, ref (Head et al. 2015), (Qu et al. 2013), (Bellmann 2007)): -30%
Cn1c(=O)c2c(ncn2C)n(C)c1=O [caffeine]	–	–	–	Small PI and PL at 100 µM, transient large PI, NL at >10 mM	–
COC(=O)C1=C(C)NC(C)=C(C(=O)OC)C1c1ccccc1[N+](=O)[O-] [nifedipine]	Small NI (direct) overridden by adrenergic activation, PC (indirect)	–	–	–	inotropy (CA) response (hiPSC-CMs): negative inotropy; IC50 (cardiac contractility): 100 nM
C[C@H]1O[C@@H](O[C@H]2[C@@H](O)C[C@H](O[C@H]3[C@@H](O)C[C@H](O[C@H]4CC[C@@]5(C)[C@H](CC[C@@H]6[C@@H]5C[C@@H](O)[C@]5(C)[C@@H](C7=CC(=O)OC7)CC[C@]65O)C4)O[C@@H]3C)O[C@@H]2C)C[C@H](O)[C@@H]1O [digoxin]	PI, arrhythmias	–	–	PI+ PL (< 1 µM, slowly developing, t1/2 conc.-dependent) NI + diast. shortening (>1 µM)	RT response (hiPSC-CMs; 2D configuration): tended to increase RT; inotropy (CA) response (hiPSC-CMs): positive inotropy
